Measurements published in US4112228A, “7-(D-α-Hydroxy-2-arylacetamido)-3-(2-carboxyalkyl-2,3-dihydro-s-tri azolo-[4,3-b]pyridazin-3-on-6-ylthiomethyl)-3-cephem-4-carboxylic acids and derivatives” (priority 1977, dated 1978).
Read-outs that look alike come from different tables or passages of the source.

Columns and labels:
[1] = tested on: E. cloacae A20464 (El-19); assay: Standard experimental infection in mice; assay type: in vivo; settings: Run C-811
[2] = tested on: Sal. typhosa; assay: MIC by Steers' agar dilution method; assay type: cell-based; settings: MHA
[3] = Urinary recovery in rats; assay type: in vivo; settings: rat, urine, sc 10 mg./kg., 0-24 Hrs.
[4] = tested on: P. vulgaris A9436 (Pv-1); assay: Standard experimental infection (single sc treatment); settings: for No. of survivors/No. tested: Run C-808, single sc
[5] = tested on: S. aureus Smith; assay: Standard experimental infection in mice; assay type: in vivo; settings: Table 6
[6] = tested on: Pr. mirabilis; assay: MIC by Steers' agar dilution method; settings: Proteus mirabilis
[7] = tested on: E. coli; assay: MIC by Steers' agar dilution method; assay type: cell-based; settings: Escherichia coli

O=C(O)Cn1nc2ccc(SCC3=C(C(=O)O)N4C(=O)C(NC(=O)[C@H](O)c5ccccc5)[C@H]4SC3)nn2c1=O (stereo partly drawn) [BB-S488, 7-(D-Mandelamido)-3-(2-carboxymethyl-2,3-dihydro-s-triazolo[4,3-b]pyridazin-3-on-6-ylthiomethyl)-3-cephem-4-carboxylic Acid]
6.3 µg/mL: MIC ([7]; ATCC8739, ATCC 8739, MHA, Example 10) | MIC ([7]; Ec-36 A15147 (β-lactamase), HIA, Table 4, read-out: MIC) | MIC ([7]; Ec-36 A15147 (β-lactamase), MHA, Table 4, read-out: MIC) | MIC ([7]; Ec-36 A15147 (β-lactamase), NA, Table 4, read-out: MIC)
38.8%: dose excreted at 24 h [3]
5/5: No. of survivors/No. tested ([1]; 6.3 mg./kg.) | No. of survivors/No. tested ([1]; 25 mg./kg.) | No. of survivors/No. tested ([1]; 100 mg./kg.) | No. of survivors/No. tested ([4]; 6.3 mg./kg.) | No. of survivors/No. tested ([4]; 25 mg./kg.) | No. of survivors/No. tested ([5]; 0.4 mg./kg.) | No. of survivors/No. tested ([5]; 1.6 mg./kg.) | No. of survivors/No. tested ([5]; 6.3 mg./kg.) | No. of survivors/No. tested ([5]; 25 mg./kg.)
2/5: No. of survivors/No. tested ([1]; 0.4 mg./kg.) | No. of survivors/No. tested ([5]; 0.1 mg./kg.)
3/5: No. of survivors/No. tested ([4]; 1.6 mg./kg.)
0.4 µg/mL: MIC ([6]; Pm-3 A20119, MHA, Table 3) | MIC ([7]; Ec-3 Juhl A15119, HIA, Table 4, read-out: MIC) | MIC ([7]; Ec-35 A9435, MHA, Table 3, read-out: MIC)
0.1 µg/mL: MIC ([6]; A9900, MHA, Table 1) | MIC ([6]; Pm-1 A9554, HIA, Table 4) | MIC ([6]; Pm-1 A9554, MHA, Table 3) | MIC ([6]; Pm-1 A9554, MHA, Table 4) | MIC ([6]; Pm-1 A9554, NA, Table 4) | MIC ([6]; Pm-2 A9900, NA, Table 4) | MIC ([6]; Pm-5 A9702, MHA, Table 3) | MIC ([7]; A15810, MHA, Table 1, read-out: MIC) | MIC ([7]; ATCC8739, ATCC 8739, MHA, Table 1, read-out: MIC) | MIC ([7]; ATCC8739, Ec-15 ATCC 8739, NA, Table 4, read-out: MIC) | MIC ([7]; Ec-1 NIHJ, NA, Table 4, read-out: MIC) | MIC ([7]; Ec-34 A9660, MHA, Table 3, read-out: MIC) | MIC ([7]; Ec-44 A9535, MHA, Table 3, read-out: MIC)
0.05 µg/mL: MIC ([2]; A9498, Table 1) | MIC ([2]; Example 10) | MIC ([6]; A9554, MHA, Table 1) | MIC ([6]; strain not given (1st of 2), MHA, Example 10) | MIC ([6]; strain not named (2nd of 2), MHA, Example 10) | MIC ([7]; A9660, MHA, Table 1, read-out: MIC) | MIC ([7]; Ec-1 NIHJ, HIA, Table 4, read-out: MIC) | MIC ([7]; Ec-1 NIHJ, MHA, Table 4, read-out: MIC)
> 100 µg/mL: MIC ([7]; Ec-11 A20366 (β-lactamase), HIA, Table 4, read-out: MIC) | MIC ([7]; Ec-11 A20366 (β-lactamase), MHA, Table 4, read-out: MIC) | MIC ([7]; Ec-11 A20366 (β-lactamase), NA, Table 4, read-out: MIC)
1.6 µg/mL: MIC ([6]; Pm-6 A21222, MHA, Table 3)
1.1 mg/kg: ED50 ([4]; Proteus vulgaris, in Mus musculus, sc, read-out: PD50)
0.12 mg/kg: ED50 ([5]; Staphylococcus aureus, read-out: PD50)
3.1 µg/mL: MIC ([7]; A15147, MHA, Table 1, read-out: MIC) | MIC ([7]; BX-1373, MHA, Example 10, read-out: MIC) | MIC ([7]; Ec-36 A15147, MHA, Table 3, read-out: MIC) | MIC ([7]; Ec-45 A15148, MHA, Table 3, read-out: MIC)
4/5: No. of survivors/No. tested ([1]; 1.6 mg./kg.)
0.2 µg/mL: MIC ([6]; Pm-2 A9900, HIA, Table 4) | MIC ([6]; Pm-2 A9900, MHA, Table 3) | MIC ([6]; Pm-2 A9900, MHA, Table 4) | MIC ([6]; Pm-4 A20454, MHA, Table 3) | MIC ([7]; ATCC8739, Ec-15 ATCC 8739, HIA, Table 4, read-out: MIC) | MIC ([7]; ATCC8739, Ec-15 ATCC 8739, MHA, Table 3, read-out: MIC) | MIC ([7]; ATCC8739, Ec-15 ATCC 8739, MHA, Table 4, read-out: MIC) | MIC ([7]; BX-1373, MHA, Table 1, read-out: MIC) | MIC ([7]; Ec-1 NIHJ, MHA, Table 3, read-out: MIC) | MIC ([7]; Ec-3 Juhl A15119, MHA, Table 3, read-out: MIC) | MIC ([7]; Ec-3 Juhl A15119, MHA, Table 4, read-out: MIC) | MIC ([7]; Ec-3 Juhl A15119, NA, Table 4, read-out: MIC) | MIC ([7]; Ec-5 K-12, ML-1630 A20363, MHA, Table 3, read-out: MIC) | MIC ([7]; Ec-40 A20361, MHA, Table 3, read-out: MIC)
1/5: No. of survivors/No. tested ([4]; 0.4 mg./kg.)
50 µg/mL: MIC ([7]; Ec-11 A20366, MHA, Table 3, read-out: MIC)
0.54 mg/kg: ED50 ([1]; Enterobacter cloacae, read-out: PD50)
12.5 µg/mL: MIC ([7]; Ec-4 A15169, MHA, Table 3, read-out: MIC)
